{
  "source": "PubChem BioAssay AID1259409",
  "about": "(Chemical Carcinogenesis Research Information System (CCRIS), 2018)",
  "origin": "cited, not measured here",
  "system": "rodent chemically induced tumor inhibition, incidence and multiplicity",
  "experiment": "CCRIS tumor inhibitor studies",
  "note": "Where “and” joins values, the source holds several entries; their conditions need not be identical. Identical values can stand only once.",
  "data": [
    {"smiles": "NCCCC(N)(C(=O)O)C(F)F", "note": "(centres undefined)", "values": [
      {"measurement": "tumour outcome (control, treated, inhibition, significance)", "setting": "Carcinogen: DIETHYLNITROSAMINE, 55-18-5, Dose [Inhibitor]: 0, 600 MG/KG BW BY INTRAPERITONEAL INJECTION ON DAYS 13, 14 AND 15 OF AGE THEN 4 G/KG DIET FROM 21 TO 161 DAYS OF AGE (S, Route [Inhibitor]: INTRAPERITONEAL, ORAL, Species: MOUSE, Strain/Sex: C3H/MALE, Target Tissue: Type of Lesion: LIVER: ADENOMA, Dose [Carcinogen]: 4 MG/KG IN TRICAPRYLIN ONCE ON DAY 15 OF AGE, Promoter: NONE USED", "value": "100%, 100%, 0%, not significant"},
      {"measurement": "tumour outcome (control, treated, inhibition, significance)", "setting": "Carcinogen: DIETHYLNITROSAMINE, 55-18-5, Dose [Inhibitor]: 0, 1600 MG/KG DIET FOR DURATION OF STUDY BEGINNING 1 WK PRIOR TO CARCINOGEN TREATMENT (STUDY DURATION: 25 WK), Route [Inhibitor]: ORAL, Species: HAMSTER, Strain/Sex: SYRIAN/MALE, Target Tissue: Type of Lesion: LUNG: CARCINOMA, Dose [Carcinogen]: 17.8 MG/KG BW 2/WK FOR 20 WK, Promoter: NONE USED", "value": "50%, 41%, 18%, not significant"},
      {"measurement": "tumour outcome (control, treated, inhibition, significance)", "setting": "Carcinogen: DIETHYLNITROSAMINE, 55-18-5, Dose [Inhibitor]: 0, 1600 MG/KG DIET FOR DURATION OF STUDY BEGINNING 1 WK PRIOR TO CARCINOGEN TREATMENT (STUDY DURATION: 25 WK), Route [Inhibitor]: ORAL, Species: HAMSTER, Strain/Sex: SYRIAN/MALE, Target Tissue: Type of Lesion: TRACHEA: PAPILLOMA, Dose [Carcinogen]: 17.8 MG/KG BW 2/WK FOR 20 WK, Promoter: NONE USED", "value": "95%, 83%, 13%, not significant"},
      {"measurement": "tumour outcome (control, treated, inhibition, significance)", "setting": "Carcinogen: DIETHYLNITROSAMINE, 55-18-5, Dose [Inhibitor]: 0, 3200 MG/KG DIET FOR DURATION OF STUDY BEGINNING 1 WK PRIOR TO CARCINOGEN TREATMENT (STUDY DURATION: 25 WK), Route [Inhibitor]: ORAL, Species: HAMSTER, Strain/Sex: SYRIAN/MALE, Target Tissue: Type of Lesion: LUNG: CARCINOMA, Dose [Carcinogen]: 17.8 MG/KG BW 2/WK FOR 20 WK, Promoter: NONE USED", "value": "60%, 47%, 22%, not significant"},
      {"measurement": "tumour outcome (control, treated, inhibition, significance)", "setting": "Carcinogen: DIETHYLNITROSAMINE, 55-18-5, Dose [Inhibitor]: 0, 3200 MG/KG DIET FOR DURATION OF STUDY BEGINNING 1 WK PRIOR TO CARCINOGEN TREATMENT (STUDY DURATION: 25 WK), Route [Inhibitor]: ORAL, Species: HAMSTER, Strain/Sex: SYRIAN/MALE, Target Tissue: Type of Lesion: TRACHEA: PAPILLOMA, Dose [Carcinogen]: 17.8 MG/KG BW 2/WK FOR 20 WK, Promoter: NONE USED", "value": "100%, 95%, 5%, not significant"},
      {"measurement": "tumour outcome (control, treated, inhibition, significance)", "setting": "Carcinogen: METHYLAZOXYMETHANOL ACETATE, 592-62-1, Dose [Inhibitor]: 0, 0.1% IN DRINKING WATER FOR 25 WK BEGINNING 15 WK POST INITIAL CARCINOGEN DOSE (STUDY DURATION: 40 WK), Route [Inhibitor]: ORAL, Species: RAT, Strain/Sex: F344/MALE, Target Tissue: Type of Lesion: LARGE INTESTINE: ADENOCARCINOMA, Dose [Carcinogen]: 20 MG/KG BW 1/WK FOR 3 WK, Promoter: 1,2-DIMETHYLHYDRAZINE, 540-73-8", "value": "16/26 (62%), 11/28 (39%), 37%, not significant"},
      {"measurement": "tumour outcome (control, treated, inhibition, significance)", "setting": "Carcinogen: METHYLAZOXYMETHANOL ACETATE, 592-62-1, Dose [Inhibitor]: 0, 0.1% IN DRINKING WATER FOR 25 WK BEGINNING 15 WK POST INITIAL CARCINOGEN DOSE (STUDY DURATION: 40 WK), Route [Inhibitor]: ORAL, Species: RAT, Strain/Sex: F344/MALE, Target Tissue: Type of Lesion: SMALL INTESTINE: ADENOCARCINOMA, Dose [Carcinogen]: 20 MG/KG BW 1/WK FOR 3 WK, Promoter: 1,2-DIMETHYLHYDRAZINE, 540-73-8", "value": "8/26 (31%), 8/25 (29%), 6%, not significant"},
      {"measurement": "tumour outcome (control, treated, inhibition, significance)", "setting": "Carcinogen: N-BUTYL-N(4-HYDROXYBUTYL)NITROSAMINE, 3817-11-6, Dose [Inhibitor]: 0, 640 MG/KG DIET FOR 6 MO BEGINNING 1 WK PRIOR TO CARCINOGEN TREATMENT (STUDY DURATION: 6 MO), Route [Inhibitor]: ORAL, Species: MOUSE, Strain/Sex: BDF/MALE, Target Tissue: Type of Lesion: URINARY BLADDER: CARCINOMA, Dose [Carcinogen]: 7.5 MG IN 0.1 ML ETHANOL:WATER (20:80) 1/WK FOR 8 WK, Promoter: NONE USED", "value": "27/70 (39%), 21/72 (29%), 26%, not calculated"},
      {"measurement": "tumour outcome (control, treated, inhibition, significance)", "setting": "Carcinogen: N-BUTYL-N-(4-HYDROXYBUTYL)NITROSAMINE, 3817-11-6, Dose [Inhibitor]: 0, 600 MG/KG DIET BEGINNING 1 WK PRIOR TO CARCINOGEN TREATMENT AND CONTINUING FOR DURATION OF STUDY (STUDY DURATION: 180, Route [Inhibitor]: ORAL, Species: MOUSE, Strain/Sex: BDF/MALE, Target Tissue: Type of Lesion: BLADDER: CARCINOMA, Dose [Carcinogen]: 7.5 MG IN 0.1 ML OF ETHANOL:WATER (20:80) 1/WK FOR 8 WK, Promoter: NONE USED", "value": "25/63 (40%), 17/72 (24%), 40%, p<0.05"},
      {"measurement": "tumour outcome (control, treated, inhibition, significance)", "setting": "Carcinogen: N-BUTYL-N-(4-HYDROXYBUTYL)NITROSAMINE, 3817-11-6, Dose [Inhibitor]: 0, 1200 MG/KG DIET BEGINNING 1 WK PRIOR TO CARCINOGEN TREATMENT AND CONTINUING FOR DURATION OF STUDY (STUDY DURATION: 18, Route [Inhibitor]: ORAL, Species: MOUSE, Strain/Sex: BDF/MALE, Target Tissue: Type of Lesion: BLADDER: CARCINOMA, Dose [Carcinogen]: 7.5 MG IN 0.1 ML OF ETHANOL:WATER (20:80) 1/WK FOR 8 WK, Promoter: NONE USED", "value": "28/65 (43%), 14/65 (22%), 49%, p<0.01"},
      {"measurement": "tumour outcome (control, treated, inhibition, significance)", "setting": "Carcinogen: N-BUTYL-N-(4-HYDROXYBUTYL)NITROSAMINE, 3817-11-6, Dose [Inhibitor]: 0, 1280 MG/KG DIET FOR 6 MO BEGINNING 1 WK PRIOR TO CARCINOGEN TREATMENT (STUDY DURATION: 6 MO), Route [Inhibitor]: ORAL, Species: MOUSE, Strain/Sex: BDF/MALE, Target Tissue: Type of Lesion: URINARY BLADDER: CARCINOMA, Dose [Carcinogen]: 7.5 MG IN 0.1 ML ETHANOL:WATER (20:80) 1/WK FOR 8 WK, Promoter: NONE USED", "value": "30/73 (41%), 15/73 (21%), 49%, p<0.01"},
      {"measurement": "tumour outcome (control, treated, inhibition, significance)", "setting": "Carcinogen: N-BUTYL-N-(4-HYDROXYBUTYL)NITROSOAMINE, 3817-11-6, Dose [Inhibitor]: 0.2% IN DRINKING WATER BEGINNING POST CARCINOGEN DOSE AND CONTINUING FOR 40 WK FOLLOWED BY TAP WATER FOR DURATION OF STU, Route [Inhibitor]: ORAL, Species: RAT, Strain/Sex: F344/MALE, Target Tissue: Type of Lesion: URINARY BLADDER: CARCINOMA, Dose [Carcinogen]: 0.05% IN DRINKING WATER FOR 6 WK, Promoter: NONE USED", "value": "19/19 (100%), 16/18 (89%), 11%, not significant and 24/24 (100%), 23/25 (92%), 8%, not significant"},
      {"measurement": "tumour outcome (control, treated, inhibition, significance)", "setting": "Carcinogen: N-BUTYL-N-(4-HYDROXYBUTYL)NITROSOAMINE, 3817-11-6, Dose [Inhibitor]: 0.2% IN DRINKING WATER BEGINNING POST CARCINOGEN DOSE AND CONTINUING FOR DURATION OF STUDY (STUDY DURATION: 75 WK), Route [Inhibitor]: ORAL, Species: RAT, Strain/Sex: F344/MALE, Target Tissue: Type of Lesion: URINARY BLADDER: CARCINOMA, Dose [Carcinogen]: 0.05% IN DRINKING WATER FOR 6 WK, Promoter: NONE USED", "value": "16/25 (64%), 11/24 (46%), 28%, not significant (at 40 wk post carcinogen dose) and 19/19 (100%), 12/19 (63%), 37%, p<0.017 (at 60 wk post carcinogen dose) and 24/24 (100%), 19/20 (95%), 5%, not significant (at 75 wk post carcinogen dose)"},
      {"measurement": "tumour outcome (control, treated, inhibition, significance)", "setting": "Carcinogen: N-ETHYL-N-NITROSOUREA, 759-73-9, Dose [Inhibitor]: 0, 250 MG/KG DIET FOR DURATION OF STUDY BEGINNING POST CARCINOGEN DOSE (STUDY DURATION: 35 WK), Route [Inhibitor]: ORAL, Species: MOUSE, Strain/Sex: PIM/MALE, Target Tissue: Type of Lesion: LYMPHATIC SYSTEM: LYMPHOMA, Dose [Carcinogen]: 50 MG/KG BW ONCE, Promoter: NONE USED", "value": "21/40 (53%), 15/29 (52%), 2%, not significant"}
    ]}
  ]
}
